Test results published in paper PMC11637483, “Dissecting caspase-2-mediated cell death: from intrinsic PIDDosome activation to chemical modulation” (Protein & Cell, 2024).
Where a chain is given by its changes, count along the chain named. Where “and” joins values, the source holds several entries; their conditions need not be identical. Equal entries are not always repeated. Entries after “also recorded” stand apart in the source; their conditions may differ.

Legend:
[1] = molecular target: T1, MBP-CASP2(32-165)-L150P/Y151H (Homo sapiens, UniProt P42575, L150P/Y151H); assay: MicroScale Thermophoresis binding to L150P/Y151H mutant pro-domain; settings: MST, L150P/Y151H double mutant
T1 construct: cDNAs encoding BID and caspase-2 pro-domain (residues 32–165) were constructed into modified pET vectors; made in house; host or cells: E. coli BL21 (DE3)
T1 sequence (P42575 32-165 L150P/Y151H): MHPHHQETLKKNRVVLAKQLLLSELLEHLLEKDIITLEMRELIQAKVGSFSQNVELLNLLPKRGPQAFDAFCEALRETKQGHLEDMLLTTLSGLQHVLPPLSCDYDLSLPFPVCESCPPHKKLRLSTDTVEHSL
Description: The contrasting responses of the two caspases to HUHS015 might result from sequence differences in the interdomain linker in the pro-domain. […] However, replacing L150 and Y151 in human caspase-2 with mouse P150 and H151, respectively, abolished HUHS015-induced caspase-2 activation as well as the cell death response (Fig. 4D). […] The importance of L150/Y151 for human caspase-2 activation by HUHS015 indicates these residues or the associated structure are likely involved in binding to the compound agonist.
(§1) MicroScale thermophoresis (MST) experiments were carried out at 25°C in the PBST Buffer (PBS with 0.05%, v/v Tween 20) by using a Monolith 2020 (TNG) (MM-208). […] The temperature-induced changes in fluorescence intensity of each sample in the capillary thermophoresis tubes were recorded by the Monolith instrument. The data were analyzed using the program provided by the manufacturer. The binding constant (KD) was calculated directly from the fitting.
Relative fluorescence (%) […]
(A) HUHS015-36 activates caspase-2 independently of PIDDosome. […] A TP-based cell viability is expressed as mean±s.d. from three technical replicates.
Immunoblotting detecting caspase-2 and BID processing is shown. […] A TP-based cell viability is expressed as mean±s.d. from three technical replicates. […]

[2] = molecular target: MBP (Escherichia coli, UniProt P0AEX9); assay: MicroScale Thermophoresis binding to MBP alone (control); settings: MST
Description: (§2) The above results prompted us to reason whether HUHS015-36 could directly target caspase-2 for activation without the requirement of any other mediator. To directly test this hypothesis, we tried to obtain purified caspase-2 protein. The preparation of full-length caspase-2 protein is known to be technically challenging. Meanwhile, the CARD domain of a caspase often plays the role in sensing upstream signals, as exemplified by the CARD of caspase-2 that is recruited by RAIDD through the CARD–CARD interaction for assembling the PIDDosome. […]
(§3) Figure 4. […] (A) The direct binding between HUHS015-36 and MBP-fused human caspase-2 pro-domain was detected by microscale thermophoresis (MST). […] The calculated dissociation constant (KD) is expressed as means ± s.d. from two determinations. […] ATP-based cell viability in panels (C–E) is expressed as mean ± s.d. from three technical replicates. […] TEXT PRINTED IN THE PICTURE: (A) HUHS015-36: MBP-CASP2(32–165) vs. HUHS015-36: KD (μmol/L): 22.05 ± 6.151; MBP vs. HUHS015-36: KD (μmol/L): Not detected
as §1, with “The data were analyzed using the program provided by the manufacturer. The binding constant (KD) was calculated directly from the fitting.” left out

[3] = molecular target: T2, MBP-CASP2(32–165), human caspase-2 pro-domain (Homo sapiens, UniProt P42575); assay: MicroScale Thermophoresis binding to MBP-fused caspase-2 pro-domain; settings: MST, 25°C, PBST buffer; means ± s.d. from two determinations; read-out: KD (binding constant)
T2 construct: cDNAs encoding BID and caspase-2 pro-domain (residues 32–165) were constructed into modified pET vectors; made in house; host or cells: E. coli BL21 (DE3)
T2 sequence (P42575 32-165): T1 sequence (P42575 32-165 L150P/Y151H) with P119L, H120Y
Description: as §2, §3
as §1, with “The data were analyzed using the program provided by the manufacturer. The binding constant (KD) was calculated directly from the fitting.” left out

## Cc1cccc2nc(-n3nc4c(c3O)CCCC4)[nH]c12 [HUHS015-36]
[1]
  KD: Not detected; also recorded: failed to detect confident binding
[2]
  KD: Not detected
[3]
  Kd: ~22 µM and 22.1 µM
